# Measurements as given in patent US12441691B2 (Cytokinetics, Inc., priority 2020, dated 2025).
# Tested on: rabbit skeletal myofibrils (fast skeletal myofibrils)
# Assay: Activation of fast skeletal myofibrils (PUMA assay, AC1.4)
# Format: biochemical
# Conditions: calcium at pCa25, AC1.4 = concentration at which the compound increased the enzymatic activity
# In short: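 In 12 mM PIPES pH 6.8 with 2 mM MgCl2 and 1 mM DTT, Triton-washed rabbit skeletal myofibrils were run at the pCa25 calcium level. Myosin-made ADP was recycled through a PK/LDH coupled system; NADH loss read at 340 nm.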
row,SMILES,AC1.4
1,"CC[C@H](C)[C@H]1C(=O)Nc2ccccc2CN1C(=O)N1CCN(C(=O)OC)CC1 [Compound 243, methyl 4-((S)-3-((S)-sec-butyl)-2-oxo-2,3,4,5-tetrahydro-1H-benzo[e][1,4]diazepine-4-carbonyl)piperazine-1-carboxylate]",1.93 µM
2,"CC[C@H](C)[C@H]1C(=O)Nc2ccccc2CN1C(=O)N1CCCC1c1nc(C)no1 (stereo partly drawn) [Compound 244, (3S)-3-((S)-sec-butyl)-4-(2-(3-methyl-1,2,4-oxadiazol-5-yl)pyrrolidine-1-carbonyl)-1,3,4,5-tetrahydro-2H-benzo[e][1,4]diazepin-2-one]",2.43 µM
3,"CC[C@H](C)[C@H]1C(=O)Nc2ccccc2CN1C(=O)N1CCC2(CC1)CNC(=O)C2 [Compound 245, (S)-3-((S)-sec-butyl)-4-(3-oxo-2,8-diazaspiro[4.5]decane-8-carbonyl)-1,3,4,5-tetrahydro-2H-benzo[e][1,4]diazepin-2-one]",3.88 µM
4,"CC[C@H](C)[C@H]1C(=O)Nc2ccccc2CN1C(=O)N1CCN(S(C)(=O)=O)CC1 [Compound 246, (S)-3-((S)-sec-butyl)-4-(4-(methylsulfonyl)piperazine-1-carbonyl)-1,3,4,5-tetrahydro-2H-benzo[e][1,4]diazepin-2-one]",1.64 µM
5,"CC[C@H](C)[C@H]1C(=O)Nc2ccccc2CN1C(=O)N1CCC[C@H](NS(C)(=O)=O)C1 [Compound 247, N-((S)-1-((S)-3-((S)-sec-butyl)-2-oxo-2,3,4,5-tetrahydro-1H-benzo[e][1,4]diazepine-4-carbonyl)piperidin-3-yl)methanesulfonamide]",2.49 µM
6,"CC[C@H](C)[C@H]1C(=O)Nc2ccccc2CN1C(=O)N1CCC[C@@H](NS(C)(=O)=O)C1 [Compound 248, N-((R)-1-((S)-3-((S)-sec-butyl)-2-oxo-2,3,4,5-tetrahydro-1H-benzo[e][1,4]diazepine-4-carbonyl)piperidin-3-yl)methanesulfonamide]",3.71 µM
7,"CC[C@H](C)[C@H]1C(=O)Nc2ccccc2CN1C(=O)N1CC(C(=O)O)C1 [Compound 249, 1-((S)-3-((S)-sec-butyl)-2-oxo-2,3,4,5-tetrahydro-1H-benzo[e][1,4]diazepine-4-carbonyl)azetidine-3-carboxylic acid]",4.51 µM
8,"CC[C@H](C)[C@H]1C(=O)Nc2ccccc2CN1C(=O)N1CC(C(N)=O)C1 [Compound 250, 1-((S)-3-((S)-sec-butyl)-2-oxo-2,3,4,5-tetrahydro-1H-benzo[e][1,4]diazepine-4-carbonyl)azetidine-3-carboxamide]",0.60 µM
9,"CC[C@H](C)[C@H]1C(=O)Nc2ccccc2CN1C(=O)Nc1nncs1 [Compound 251, (S)-3-((S)-sec-butyl)-2-oxo-N-(1,3,4-thiadiazol-2-yl)-1,2,3,5-tetrahydro-4H-benzo[e][1,4]diazepine-4-carboxamide]",0.08 µM
10,"CC[C@H](C)[C@H]1C(=O)Nc2ccccc2CN1C(=O)N[C@@H](C(N)=O)c1ccccc1 [Compound 252, (S)-N-((R)-2-amino-2-oxo-1-phenylethyl)-3-((S)-sec-butyl)-2-oxo-1,2,3,5-tetrahydro-4H-benzo[e][1,4]diazepine-4-carboxamide]",0.44 µM
11,"CC[C@H](C)[C@H]1C(=O)Nc2ccccc2CN1C(=O)Nc1ccc(=O)n(CC)c1 [Compound 253, (S)-3-((S)-sec-butyl)-N-(1-ethyl-6-oxo-1,6-dihydropyridin-3-yl)-2-oxo-1,2,3,5-tetrahydro-4H-benzo[e][1,4]diazepine-4-carboxamide]",0.08 µM
12,"CC[C@H](C)[C@H]1C(=O)Nc2ccccc2CN1C(=O)Nc1ccc(=O)n(CC2CC2)c1 [Compound 254, (S)-3-((S)-sec-butyl)-N-(1-(cyclopropylmethyl)-6-oxo-1,6-dihydropyridin-3-yl)-2-oxo-1,2,3,5-tetrahydro-4H-benzo[e][1,4]diazepine-4-carboxamide]",0.07 µM
13,"CC[C@H](C)[C@H]1C(=O)Nc2ccccc2CN1C(=O)Nc1cccn(CCOC)c1=O [Compound 255, (S)-3-((S)-sec-butyl)-N-(1-(2-methoxyethyl)-2-oxo-1,2-dihydropyridin-3-yl)-2-oxo-1,2,3,5-tetrahydro-4H-benzo[e][1,4]diazepine-4-carboxamide]",0.13 µM
14,"CC[C@H](C)[C@H]1C(=O)Nc2ccccc2CN1C(=O)N[C@@H](C)C(N)=O [Compound 256, (S)-N-((S)-1-amino-1-oxopropan-2-yl)-3-((S)-sec-butyl)-2-oxo-1,2,3,5-tetrahydro-4H-benzo[e][1,4]diazepine-4-carboxamide]",1.89 µM
15,"CC[C@H](C)[C@H]1C(=O)Nc2ccccc2CN1C(=O)Nc1cc(C(F)(F)F)c[nH]c1=O [Compound 257, (S)-3-((S)-sec-butyl)-2-oxo-N-(2-oxo-5-(trifluoromethyl)-1,2-dihydropyridin-3-yl)-1,2,3,5-tetrahydro-4H-benzo[e][1,4]diazepine-4-carboxamide]",0.02 µM
16,"CC[C@H](C)[C@H]1C(=O)Nc2ccccc2CN1C(=O)Nc1cc(-c2ccncc2)c[nH]c1=O [Compound 258, (S)-3-((S)-sec-butyl)-2-oxo-N-(6-oxo-1,6-dihydro-[3,4′-bipyridin]-5-yl)-1,2,3,5-tetrahydro-4H-benzo[e][1,4]diazepine-4-carboxamide]",0.29 µM

row,SMILES,AC1.4
1,"CC[C@H](C)[C@H]1C(=O)Nc2ccccc2CN1C(=O)NCC(=O)N1CCC[C@H]1C(=O)O [Compound 259, ((S)-3-((S)-sec-butyl)-2-oxo-2,3,4,5-tetrahydro-1H-benzo[e][1,4]diazepine-4-carbonyl)glycyl-L-proline]",2.44 µM
2,"CC[C@H](C)[C@H]1C(=O)Nc2ccccc2CN1C(=O)NCCN1CCNC1=O [Compound 260, (S)-3-((S)-sec-butyl)-2-oxo-N-(2-(2-oxoimidazolin-1-yl)ethyl)-1,2,3,5-tetrahydro-4H-benzo[e][1,4]diazepine-4-carboxamide]",1.91 µM
3,"CC[C@H](C)[C@H]1C(=O)Nc2ccccc2CN1C(=O)NCC1(CO)COC1 [Compound 261, (S)-3-((S)-sec-butyl)-N-((3-(hydroxymethyl)oxetan-3-yl)methyl)-2-oxo-1,2,3,5-tetrahydro-4H-benzo[e][1,4]diazepine-4-carboxamide]",3.34 µM
4,"CC[C@H](C)[C@H]1C(=O)Nc2ccccc2CN1C(=O)NCCCCN1CCC(C(N)=O)CC1 [Compound 262, (S)-3-((S)-sec-butyl)-N-(4-(4-carbamoylpiperidin-1-yl)butyl)-2-oxo-1,2,3,5-tetrahydro-4H-benzo[e][1,4]diazepine-4-carboxamide]",0.46 µM
5,"CC[C@H](C)[C@H]1C(=O)Nc2ccccc2CN1C(=O)NCC(C)(C)C(N)=O [Compound 263, (S)-N-(3-amino-2,2-dimethyl-3-oxopropyl)-3-((S)-sec-butyl)-2-oxo-1,2,3,5-tetrahydro-4H-benzo[e][1,4]diazepine-4-carboxamide]",2.70 µM
6,"CC[C@H](C)[C@H]1C(=O)Nc2ccccc2CN1C(=O)N1CC(N2CCCC2)C1 [Compound 264, (S)-3-((S)-sec-butyl)-4-(3-(pyrrolidin-1-yl)azetidine-1-carbonyl)-1,3,4,5-tetrahydro-2H-benzo[e][1,4]diazepin-2-one]",0.84 µM
7,"CC[C@H](C)[C@H]1C(=O)Nc2ccccc2CN1C(=O)N1CC(N2CCN(C)CC2)C1 [Compound 265, (S)-3-((S)-sec-butyl)-4-(3-(4-methylpiperazin-1-yl)azetidine-1-carbonyl)-1,3,4,5-tetrahydro-2H-benzo[e][1,4]diazepin-2-one]",0.70 µM
8,"CC[C@H](C)[C@H]1C(=O)Nc2ccccc2CN1C(=O)N1CC(N2CCOCC2)C1 [Compound 266, (S)-3-((S)-sec-butyl)-4-(3-morpholinoazetidine-1-carbonyl)-1,3,4,5-tetrahydro-2H-benzo[e][1,4]diazepin-2-one]",2.47 µM
9,"CC[C@H](C)[C@H]1C(=O)Nc2ccccc2CN1C(=O)N1CC(N2CCN(CCO)CC2)C1 [Compound 267, (S)-3-((S)-sec-butyl)-4-(3-(4-(2-hydroxyethyl)piperazin-1-yl)azetidine-1-carbonyl)-1,3,4,5-tetrahydro-2H-benzo[e][1,4]diazepin-2-one]",0.95 µM
10,"CC[C@H](C)[C@H]1C(=O)Nc2ccccc2CN1C(=O)N1CC(N2CCN(c3ccccn3)CC2)C1 [Compound 268, (S)-3-((S)-sec-butyl)-4-(3-(4-(pyridin-2-yl)piperazin-1-yl)azetidine-1-carbonyl)-1,3,4,5-tetrahydro-2H-benzo[e][1,4]diazepin-2-one]",1.03 µM
11,"CC[C@H](C)[C@H]1C(=O)Nc2ccccc2CN1C(=O)N1CC(OCC(=O)N(C)C)C1 [Compound 269, 2-((1-((S)-3-((S)-sec-butyl)-2-oxo-2,3,4,5-tetrahydro-1H-benzo[e][1,4]diazepine-4-carbonyl)azetidin-3-yl)oxy)-N,N-dimethylacetamide]",0.92 µM
12,"CC[C@H](C)[C@H]1C(=O)Nc2ccccc2CN1C(=O)N1CC(OCC(=O)NC)C1 [Compound 270, 2-((1-((S)-3-((S)-sec-butyl)-2-oxo-2,3,4,5-tetrahydro-1H-benzo[e][1,4]diazepine-4-carbonyl)azetidin-3-yl)oxy)-N-methylacetamide]",0.94 µM
13,"CC[C@H](C)[C@H]1C(=O)Nc2ccccc2CN1C(=O)N1CC(C)(N)C1 [Compound 271, (S)-4-(3-amino-3-methylazetidine-1-carbonyl)-3-((S)-sec-butyl)-1,3,4,5-tetrahydro-2H-benzo[e][1,4]diazepin-2-one]",0.95 µM
14,"CC[C@H](C)[C@H]1C(=O)Nc2ccccc2CN1C(=O)N1C2COCC1C2 [Compound 272, (3S)-4-(3-oxa-6-azabicyclo[3.1.1]heptane-6-carbonyl)-3-((S)-sec-butyl)-1,3,4,5-tetrahydro-2H-benzo[e][1,4]diazepin-2-one]",2.62 µM
15,"CC[C@H](C)[C@H]1C(=O)Nc2ccccc2CN1C(=O)NC1(C#N)CC1 [Compound 273, (S)-3-((S)-sec-butyl)-N-(1-cyanocyclopropyl)-2-oxo-1,2,3,5-tetrahydro-4H-benzo[e][1,4]diazepine-4-carboxamide]",3.02 µM
